Laboratory results reported in PubChem BioAssay (NCI).
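GI50: concentration for 50% inhibition of growth. The concentration for full growth arrest is given as TGI.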

Columns and labels:
Assay in all cases: DTP human tumour cell line panel, 384-well format
A498 renal = tested on: A498 renal
A549 NSCLC = tested on: A549 NSCLC
HS 578T breast = tested on: HS 578T breast
UACC-257 melanoma = tested on: UACC-257 melanoma
MDA-MB-435 melanoma = tested on: MDA-MB-435 melanoma
OVCAR-8 ovarian = tested on: OVCAR-8 ovarian
KM12 colon = tested on: KM12 colon
NCI-H23 lung = tested on: NCI-H23 lung
LOX IMVI melanoma = tested on: LOX IMVI melanoma
UACC-62 melanoma = tested on: UACC-62 melanoma
MDA-MB-468 breast = tested on: MDA-MB-468 breast
MALME-3M melanoma = tested on: MALME-3M melanoma
K-562 leukemia = tested on: K-562 leukemia
UO-31 renal = tested on: UO-31 renal
SK-MEL-28 melanoma = tested on: SK-MEL-28 melanoma
MOLT-4 leukemia = tested on: MOLT-4 leukemia
NCI-H322M lung = tested on: NCI-H322M lung
HOP-92 NSCLC = tested on: HOP-92 NSCLC
SNB-19 CNS = tested on: SNB-19 CNS
SF-539 CNS = tested on: SF-539 CNS
SF-268 CNS = tested on: SF-268 CNS
DU-145 prostate = tested on: DU-145 prostate
SK-OV-3 ovarian = tested on: SK-OV-3 ovarian
CAKI-1 renal = tested on: CAKI-1 renal
HCC-2998 colon = tested on: HCC-2998 colon
U251 glioblastoma = tested on: U251 glioblastoma
NCI-H226 lung = tested on: NCI-H226 lung
HCT-116 colon = tested on: HCT-116 colon
MDA-MB-231 breast = tested on: MDA-MB-231 breast
SW-620 colon = tested on: SW-620 colon
SF-295 CNS = tested on: SF-295 CNS
786-0 renal = tested on: 786-0 renal
IGROV1 ovarian = tested on: IGROV1 ovarian
HOP-62 NSCLC = tested on: HOP-62 NSCLC
OVCAR-4 ovarian = tested on: OVCAR-4 ovarian
HT29 colon = tested on: HT29 colon
TK-10 renal = tested on: TK-10 renal
HL-60(TB) leukemia = tested on: HL-60(TB) leukemia
CCRF-CEM leukemia = tested on: CCRF-CEM leukemia
MCF7 breast = tested on: MCF7 breast
RXF 393 renal = tested on: RXF 393 renal
SK-MEL-5 melanoma = tested on: SK-MEL-5 melanoma
NCI/ADR-RES ovarian = tested on: NCI/ADR-RES ovarian
NCI-H522 lung = tested on: NCI-H522 lung
SNB-75 CNS = tested on: SNB-75 CNS
M14 melanoma = tested on: M14 melanoma
BT-549 breast = tested on: BT-549 breast
EKVX NSCLC = tested on: EKVX NSCLC
ACHN renal = tested on: ACHN renal
COLO 205 colon = tested on: COLO 205 colon
NCI-H460 NSCLC = tested on: NCI-H460 NSCLC
RPMI-8226 leukemia = tested on: RPMI-8226 leukemia
PC-3 prostate = tested on: PC-3 prostate
T-47D breast = tested on: T-47D breast
SN12C renal = tested on: SN12C renal
OVCAR-3 ovarian = tested on: OVCAR-3 ovarian
HCT-15 colon = tested on: HCT-15 colon

With `CC1(C)OCCn2c1nc1c(N3CCOCC3)nc(-c3cnc(N)nc3)nc12` the GI50 (A498 renal) was 0.314 µM, the TGI (A498 renal) was 2.2 µM and the GI50 (A549 NSCLC) was 0.477 µM. The TGI (A549 NSCLC) was 6.09 µM, the GI50 (HS 578T breast) was 0.275 µM and the TGI (HS 578T breast) was 1.35 µM. It also gave a GI50 (UACC-257 melanoma) of 1.83 µM, a TGI (UACC-257 melanoma) of over 100 µM and a GI50 (MDA-MB-435 melanoma) of 1.23 µM. It also gave a TGI (MDA-MB-435 melanoma) of over 100 µM, a GI50 (OVCAR-8 ovarian) of 0.742 µM and a TGI (OVCAR-8 ovarian) of over 100 µM. For the same compound, the GI50 (KM12 colon) was 0.834 µM, the TGI (KM12 colon) was over 100 µM and the GI50 (NCI-H23 lung) was 0.446 µM. The TGI (NCI-H23 lung) was over 100 µM, the GI50 (LOX IMVI melanoma) was 0.556 µM and the TGI (LOX IMVI melanoma) was 3.44 µM. The GI50 (UACC-62 melanoma) was 0.556 µM, the TGI (UACC-62 melanoma) was 2.98 µM and the GI50 (MDA-MB-468 breast) was 0.399 µM. For the same compound, the TGI (MDA-MB-468 breast) was 1.78 µM, the GI50 (MALME-3M melanoma) was 0.161 µM and the TGI (MALME-3M melanoma) was 0.749 µM. For the same compound, the GI50 (K-562 leukemia) was 1.95 µM, the TGI (K-562 leukemia) was over 100 µM and the GI50 (UO-31 renal) was 0.416 µM. For the same compound, the TGI (UO-31 renal) was over 100 µM, the GI50 (SK-MEL-28 melanoma) was 0.418 µM and the TGI (SK-MEL-28 melanoma) was 5.42 µM. It also gave a GI50 (MOLT-4 leukemia) of 0.218 µM, a TGI (MOLT-4 leukemia) of 1.2 µM and a GI50 (NCI-H322M lung) of 0.458 µM. The TGI (NCI-H322M lung) was 8.7 µM, the GI50 (HOP-92 NSCLC) was 0.385 µM and the TGI (HOP-92 NSCLC) was 2.89 µM. For the same compound, the GI50 (SNB-19 CNS) was 5.61 µM, the TGI (SNB-19 CNS) was over 100 µM and the GI50 (SF-539 CNS) was 1.04 µM. For the same compound, the TGI (SF-539 CNS) was over 100 µM, the GI50 (SF-268 CNS) was 1.07 µM and the TGI (SF-268 CNS) was over 100 µM. For the same compound, the GI50 (DU-145 prostate) was 0.527 µM, the TGI (DU-145 prostate) was 9.15 µM and the GI50 (SK-OV-3 ovarian) was 0.199 µM. The TGI (SK-OV-3 ovarian) was 1.2 µM, the GI50 (CAKI-1 renal) was 0.279 µM and the TGI (CAKI-1 renal) was 2.74 µM. It also gave a GI50 (HCC-2998 colon) of 0.885 µM, a TGI (HCC-2998 colon) of over 100 µM and a GI50 (U251 glioblastoma) of 2.25 µM. It also gave a TGI (U251 glioblastoma) of over 100 µM, a GI50 (NCI-H226 lung) of 0.348 µM and a TGI (NCI-H226 lung) of 2.9 µM. For the same compound, the GI50 (HCT-116 colon) was 0.545 µM, the TGI (HCT-116 colon) was over 100 µM and the GI50 (MDA-MB-231 breast) was 0.584 µM. The TGI (MDA-MB-231 breast) was over 100 µM, the GI50 (SW-620 colon) was 1.6 µM and the TGI (SW-620 colon) was over 100 µM. It also gave a GI50 (SF-295 CNS) of 0.316 µM, a TGI (SF-295 CNS) of 2.02 µM and a GI50 ([…]-0 renal) of 1.28 µM. For the same compound, the TGI (786-0 renal) was 9.93 µM, the GI50 (IGROV1 ovarian) was 0.158 µM and the TGI (IGROV1 ovarian) was 0.659 µM. For the same compound, the GI50 (HOP-62 NSCLC) was 0.771 µM, the TGI (HOP-62 NSCLC) was over 100 µM and the GI50 (OVCAR-4 ovarian) was 1.04 µM. It also gave a TGI (OVCAR-4 ovarian) of 5.79 µM, a GI50 (HT29 colon) of 0.412 µM and a TGI (HT29 colon) of over 100 µM. For the same compound, the GI50 (TK-10 renal) was 0.412 µM, the TGI (TK-10 renal) was 3.68 µM and the GI50 (HL-60(TB) leukemia) was 0.153 µM. The TGI (HL-60(TB) leukemia) was 1.91 µM, the GI50 (CCRF-CEM leukemia) was 0.491 µM and the TGI (CCRF-CEM leukemia) was 7.05 µM. For the same compound, the GI50 (MCF7 breast) was 0.0964 µM, the TGI (MCF7 breast) was over 100 µM and the GI50 (RXF 393 renal) was 0.758 µM. For the same compound, the TGI (RXF 393 renal) was 4.42 µM, the GI50 (SK-MEL-5 melanoma) was 0.519 µM and the TGI (SK-MEL-5 melanoma) was 2.56 µM. It also gave a GI50 (NCI/ADR-RES ovarian) of 1.77 µM, a TGI (NCI/ADR-RES ovarian) of over 100 µM and a GI50 (NCI-H522 lung) of 0.368 µM. The TGI (NCI-H522 lung) was over 100 µM, the GI50 (SNB-75 CNS) was 0.232 µM and the TGI (SNB-75 CNS) was 2.27 µM. The GI50 (M14 melanoma) was 0.494 µM, the TGI (M14 melanoma) was over 100 µM and the GI50 (BT-549 breast) was 0.799 µM. For the same compound, the TGI (BT-549 breast) was 5.59 µM, the GI50 (EKVX NSCLC) was 0.519 µM and the TGI (EKVX NSCLC) was 4.1 µM. For the same compound, the GI50 (ACHN renal) was 0.467 µM, the TGI (ACHN renal) was 6.87 µM and the GI50 (COLO 205 colon) was 0.378 µM. For the same compound, the TGI (COLO 205 colon) was 9.22 µM, the GI50 (NCI-H460 NSCLC) was 0.199 µM and the TGI (NCI-H460 NSCLC) was over 100 µM. For the same compound, the GI50 (RPMI-8226 leukemia) was 0.193 µM, the TGI (RPMI-8226 leukemia) was 0.667 µM and the GI50 (PC-3 prostate) was 0.306 µM. The TGI (PC-3 prostate) was 6.92 µM, the GI50 (T-47D breast) was 0.128 µM and the TGI (T-47D breast) was 0.638 µM. For the same compound, the GI50 (SN12C renal) was 0.389 µM, the TGI (SN12C renal) was 5.49 µM and the GI50 (OVCAR-3 ovarian) was 0.513 µM. The TGI (OVCAR-3 ovarian) was 7.28 µM, the GI50 (HCT-15 colon) was 0.432 µM and the TGI (HCT-15 colon) was over 100 µM.
